Results: patent publication US11090285B2, “Treatment of circadian rhythm disorders” (Vanda Pharmaceuticals Inc., priority 2013, dated 2021)
“Also recorded” adds a separate entry of the source.

Experiments:
patients with Non-24 = assay: SET Study, Phase III randomized, double-masked, placebo-controlled; type: in vivo, human
Description: Specifically, patients were orally administered 20 mg tasimelteon per day for at least 12 weeks prior to re-estimating tau. Patients were selected for randomization or open label based on baseline tau estimates. Drug was administered at about 1 hour prior to target sleep time, as determined by patients based on a 9 hour nighttime sleep period.
The SET study was an 84 patient randomized, double-masked, placebo-controlled study in patients with Non-24. The primary endpoints for this study were Entrainment of the melatonin (aMT6s) rhythm to the 24-hour clock and Clinical Response as measured by Entrainment plus a score of greater than or equal to 3 on the following N24CRS:
The SET study also assessed a number of secondary endpoints including Entrainment of cortisol rhythm and a broad range of clinical sleep and wake parameters. These parameters included improvement in the total nighttime sleep in the worst 25% of nights (LQ-nTST), decrease in the total daytime sleep duration in the worst 25% of days (UQ-dTSD) and midpoint of sleep timing (MoST) which is derived from a combination of the sleep reported for both nighttime and daytime. CGI-C is a seven-point rating scale of global functioning with lower scores indicating larger improvements.

[1] = tmax after administration; parameters: species or system human; conditions: in vivo
Description: The ability to administer tasimelteon as little as about one hour prior to sleep time is advantageous because it allows for avoidance of pre-sleep time soporific effects, because it allows for administration of higher doses that might have greater soporific effects, and because it allows for pharmacologic intervention at a different phase of the sleep cycle than if it were administered earlier. Without wishing to be bound to any particular theory, it appears that the ability to administer tasimelteon so close to sleep time is a function of its tmax, which is approximately one-half hour. Melatonin, on the other hand, which has a tmax of approximately 2 hours or more, is administered several hours before sleep time, which can cause premature sleepiness; to avoid this soporific effect, melatonin is sometimes administered at sub-optimal doses.

[2] = system: blind individuals with Non-24; assay: RESET Study, randomized withdrawal, maintenance of effect; type: in vivo, human
Description: Patients were treated with tasimelteon for at least twelve weeks during an open-label run-in phase during the SET Study. Patients who responded to tasimelteon treatment during the run-in phase were then randomized to receive either placebo or tasimelteon (20 mg/day) for 2 months.
The primary endpoint of the RESET Study was the maintenance of effect as measured by entrainment of the melatonin (aMT6s) rhythm.
The RESET study also assessed a number of secondary endpoints including maintenance of entrainment of the cortisol rhythm and a range of sleep and wake parameters including LQ-nTST (total nighttime sleep in the worst 25% of nights), UQ-dTSD (total daytime sleep duration in the worst 25% of days) and MoST (midpoint of sleep timing from both nighttime and daytime sleep).

[3] = 20 mg/day, SET secondary endpoint
[4] = 20 mg/day, sensitivity analysis
[5] = RESET, higher number indicates improvement

CCC(=O)NC[C@@H]1C[C@H]1c1cccc2c1CCO2 (relative stereo) [Tasimelteon, trans-N-[[2-(2,3-dihydrobenzofuran-4-yl)cycloprop-1yl]methyl]propanamide]
Entrainment (aMT6s) (patients with Non-24; 20 mg/day oral, SET primary endpoint): 20.0% | LQ-nTST (LS mean minutes) (patients with Non-24; 20 mg/day, SET): 57.0 min | MoST (LS mean minutes) (patients with Non-24; 20 mg/day, SET): 34.8 min | Clinical Response (Entrainment + N24CRS >=3) (patients with Non-24; 20 mg/day, SET primary endpoint): 23.7% | Entrainment (cortisol) (patients with Non-24; [3]): 17.5% | N24CRS (LS mean minutes) (patients with Non-24; [3]): 1.77 min | UQ-dTSD (LS mean minutes) (patients with Non-24; 20 mg/day, SET, smaller numbers indicate improvement): -46.2 min | Clinical Response (Entrainment + N24CRS >=2) (patients with Non-24; [4]): 28.9% | N24CRS >=2 (patients with Non-24; [4]): 57.9% | N24CRS >=3 (patients with Non-24; [4]): 28.9% | CGI-C (LS mean minutes) (patients with Non-24; 20 mg/day, smaller numbers indicate improvement): 2.6 min | safety and tolerability (patients with Non-24; SET study): safe and well tolerated | percentage of entrained patients (patients with Non-24; on drug at least two circadian cycles, not on beta blockers, tau<24.7 hours): approximately 85% | LQ-nTST and UQ-dTSD >=90 min (patients with Non-24; only subjects with significant sleep and nap problems at baseline): 23.8% | LQ-nTST and UQ-dTSD >=45 min (patients with Non-24; sensitivity analysis): 31.6% | Tmax [1]: approximately one-half; also recorded: about one-half | maintenance of entrainment (cortisol) ([2]; 20 mg/day, RESET): 80.0% | Maintenance of entrainment (aMT6s) ([2]; 20 mg/day, RESET primary endpoint): 90.0% | LQ-nTST (LS mean minutes) [2, 5]: -6.6 min | MoST (LS mean minutes) [2, 5]: 19.8 min | UQ-dTSD (LS mean minutes) ([2]; RESET, lower number indicates improvement): -9.6 min | LQ-nTST (LS mean minutes), Difference ([2]; tasimelteon vs placebo): 67.2 min | MoST (LS mean minutes), Difference ([2]; tasimelteon vs placebo): 36.0 min | UQ-dTSD (LS mean minutes), Difference ([2]; tasimelteon vs placebo): -59.4 min | maintenance of entrainment (cortisol), Difference ([2]; tasimelteon vs placebo): 60.0%
